From patent publication US20080269298A1, “Benzimidazol-1-YL-thiophene compounds for the treatment of cancer” (priority 2002, published 2008)

Assays:
[1] = system: breast tumor (MCF7) cell line; assay: Methylene Blue Growth Inhibition Assay, MCF7; format: cell-based; details: Homo sapiens, 72 h; Cell Line MCF7, 3 days; read-out: MeB IC50
Method: (§1) Normal Human foreskin fibroblasts (HFF) and human colon (HCT116, RKO), lung (H460), prostate (PC3), and breast tumor (MCF7) cell lines were cultured in high glucose DMEM (Life Technologies) containing 10% fetal bovine serum (FBS) at 37° C. in a humidified 10% CO2, 90% air incubator. Cells were harvested using trypsin/EDTA, counted using a haemocytometer, and plated in 100 μl of the appropriate media, at the following densities, in a 96-well tissue culture plate (Falcon 3075): HFF 5,000 cells/well, HCT116 3,000 cells/well, RKO 2,500 cells/well, H460 2,000 cells/well, PC3 8,000 cells/well, MCF7 4,000 cells/well. The next day, compounds were diluted in DMEM containing 100 μg/ml gentamicin, at twice the final required concentration, from 10 mM stock solutions in DMSO. 100μ/well of these dilutions were added to the 100 μl of media currently on the cell plates. Medium containing 0.6% DMSO was added to control wells. Compounds diluted in DMEM were added to all cell lines. The final concentration of DMSO in all wells was 0.3%. Cells were incubated at 37° C., 10% CO2 for 3 days. Medium was removed by aspiration. Cell biomass was estimated by staining cells with […] per well methylene blue (Sigma M9140, 0.5% in 50:50 ethanol:water), and incubation at room temperature for at least 30 minutes. Stain was removed, and the plates rinsed under a gentle stream of water, and air-dried. To release stain from the cells 100 μl of solubilization solution was added (1% N-lauroyl sarcosine, Sodium salt, Sigma L5125, in PBS), and plates were shaken gently for about 30 minutes. Optical density at 620 nm was measured on a microplate reader. Percent inhibition of cell growth was calculated relative to vehicle treated control wells. Concentration of compound that inhibits 50% of cell growth (IC50) was interpolated using nonlinear regression (Levenberg-Marquardt) and the equation, y=Vmax*(1-(x/(K+x)))+Y2, where “K” was equal to the IC50. In Table 1, +=10−>30 uM; ++=1−10 uM: +++=<1 uM.

[2] = system: prostate (PC3) tumor cell line; assay: Methylene Blue Growth Inhibition Assay, PC3; format: cell-based; details: Homo sapiens, 72 h; Cell Line PC3, 3 days; read-out: MeB IC50
Method: as §1

[3] = system: Normal Human foreskin fibroblasts (HFF); assay: Methylene Blue Growth Inhibition Assay, HFF; format: cell-based; details: 72 h, Cell Line HFF, 3 days, read-out: MeB IC50
Method: as §1

PLK1 kinase domain = biological target: T1, PLK1 kinase domain (Homo sapiens, UniProt P53350); assay: Assay for Inhibition of PLK1 (SPA enzyme activity); format: biochemical; details: 2 μM ATP, read-out: Ave pIC50 PLK Enzyme Inhibition (converted)
T1 construct: made in house; host or cells: baculovirus-infected T. ni insect cells
Method: All procedures were performed at 4° C. Cells were lysed in so mM HEPES, 200 mM NaCl, so mM imidazole, 5% glycerol; pH 7.5. The homogenate was centrifuged at 14K rpm in a SLA-1500 rotor for 1 hr and the supernatant filtered through a 1.2 micron filter. The supernatant was loaded onto a Nickel chelating Sepharose (Amersham Pharmacia) column and washed with lysis buffer. Protein was eluted using 20%, 30% and 100% buffer B steps where buffer B is 50 mM HEPES, 200 mM NaCl, 300 mM imidazole, 5% glycerol; pH 7.5. Fractions containing PLK were determined by SDS-PAGE. Fractions containing PLK were diluted five-fold with so mM HEPES, 1 mM DTT, 5% glycerol; pH 7.5, then loaded on an SP Sepharose (Amersham Pharmacia) column. After washing the column with so mM HEPES, 1 mM DTT, 5% glycerol; pH 7.5, PLK was step eluted with so mM HEPES, 1 mM DTT, 500 mM NaCl; 5% glycerol; pH 7.5. PLK was concentrated using a 10 kDa molecular weight cutoff membrane and then loaded onto a Superdex 200 gel filtration (Amersham Pharmacia) column equilibrated in 25 mM HEPES, 1 mM DTT, 500 mM NaCl, 5% glycerol; pH 7.5. Fractions containing PLK were determined by SDS-PAGE. PLK was pooled, aliquoted and stored at −80° C. Samples were quality controlled using mass spectrometry, N-terminal sequencing and amino acid analysis.
B. Enzyme activity+/−inhibitors was determined as follows:
Compounds were added to the plate (1 μl in […]). […] Reaction Mix B is prepared as follows at 4° C.: • Reaction Mix B (Enzyme Mix) • 25 mM HEPES, pH 7.2 • 15 mM MgCl2 • 0.15 mg/ml BSA • 2 mM DTT • 2-10 nM PLK1 kinase domain
Reaction Mix A (20 μl) is added per well. Reaction Mix B (20 μl) is added per well. Incubate 1.5 hrs. at RT. The enzymatic reaction is stopped with 175 μl of SPA/EDTA bead mix (29 mM EDTA, 2.5 mg/ml Streptavidin-coated SPA in Standard Dulbecco's PBS (without Mg^2+ and Ca^2+), 60 μM ATP). Plates are sealed spun (after a 1 hr incubation at RT) at 1,000×g for 7 min or settled overnight, then plates counted in Packard TopCount for 30 seconds/well.

[4] = system: colon (HCT116) tumor cell line; assay: Methylene Blue Growth Inhibition Assay, HCT116; format: cell-based; details: Homo sapiens, HCT-116, 72 h; Cell Line HCT116, 3 days; read-out: MeB IC50
Method: as §1

[5] = system: lung (H460) tumor cell line; assay: Methylene Blue Growth Inhibition Assay, H460; format: cell-based; details: Homo sapiens, NCI-H460, 72 h; Cell Line H460, 3 days; read-out: MeB IC50
Method: as §1

[6] = system: colon (RKO) tumor cell line; assay: Methylene Blue Growth Inhibition Assay, RKO; format: cell-based; details: Homo sapiens, 72 h, 3 days, read-out: MeB IC50
Method: as §1

T1 sequence (P53350 21-346): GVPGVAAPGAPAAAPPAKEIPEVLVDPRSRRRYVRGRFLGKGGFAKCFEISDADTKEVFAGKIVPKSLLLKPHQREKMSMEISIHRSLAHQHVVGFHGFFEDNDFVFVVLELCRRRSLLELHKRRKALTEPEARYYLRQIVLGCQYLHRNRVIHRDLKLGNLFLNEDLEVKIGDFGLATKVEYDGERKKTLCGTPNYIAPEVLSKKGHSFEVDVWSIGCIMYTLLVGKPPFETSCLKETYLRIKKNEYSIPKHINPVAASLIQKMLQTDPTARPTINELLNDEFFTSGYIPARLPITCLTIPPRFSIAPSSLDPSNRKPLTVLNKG

| SMILES | IC50 [1] | IC50 [2] | IC50 [3] | IC50 (PLK1 kinase domain) | IC50 [4] | IC50 [5] | IC50 [6] |
| --- | --- | --- | --- | --- | --- | --- | --- |
| CC(Oc1cc(-n2cnc3cc(N)ccc32)sc1C(N)=O)c1ccccc1Cl (centres unmarked) [Example 157, 5-(5-Amino-1H-benzimidazol-1-yl)-3-[1-(2-chlorophenyl)ethoxy]thiophene-2-carboxamide] | < 1 µM | < 1 µM | > 10 µM | < 0.1 µM | < 1 µM | < 1 µM | < 1 µM |
| COc1cc2ncn(-c3cc(OCc4ccccc4C(F)(F)F)c(C(N)=S)s3)c2cc1OC [Example 145] | > 10 µM | > 10 µM | > 10 µM | < 0.1 µM | > 10 µM | > 10 µM | > 10 µM |
| NC(=O)c1sc(-n2cnc3ccccc32)cc1C#Cc1ccccc1 [Example 129, 5-(1H-Benzimidazol-1-yl)-3-(phenylethynyl)thiophene-2-carboxamide] | > 10 µM | > 10 µM | > 10 µM | 0.1 to 10 µM | > 10 µM | > 10 µM | > 10 µM |
| COc1cc2ncn(-c3cc(OCc4ccccc4C(O)CO)c(C(N)=O)s3)c2cc1OC (centres unmarked) [Example 109] | > 10 µM | > 10 µM | > 10 µM | 0.1 to 10 µM | > 10 µM | > 10 µM | > 10 µM |
| NC(=O)c1sc(-n2cnc3ccccc32)cc1NCc1ccccc1C(F)(F)F [Example 133, 5-(1H-Benzimidazol-1-yl)-3-{[2-(trifluoromethyl)benzyl]amino}-thiophene-2-carboxamide] | > 10 µM | > 10 µM | > 10 µM | 0.1 to 10 µM | 1 to 10 µM | > 10 µM | 1 to 10 µM |
| NC(=O)c1sc(-n2cnc3cc(C(=O)NCCN4CCNC4=O)ccc32)cc1OCc1ccccc1C(F)(F)F [Example 156, 1-(5-(Aminocarbonyl)-4-{[2-(trifluoromethyl)benzyl]oxy}thien-2-yl)-N-[2-(2-oXoimidazolidin-1-yl)ethyl]-1H-benzimidazole-5-carboxamide] | > 10 µM | > 10 µM | > 10 µM | < 0.1 µM | > 10 µM | > 10 µM | > 10 µM |
| O=C(O)c1sc(-n2cnc3ccc(Cl)cc32)cc1OCc1ccc(F)cc1F [Example 71, 5-(6-Chloro-1H-benzimidazol-1-yl)-3-[(2,4-difluorobenzyl)oxy]-thiophene-2-carboxylic acid] | > 10 µM | > 10 µM | > 10 µM | < 0.1 µM | > 10 µM | > 10 µM | > 10 µM |
| COc1ccc2ncn(-c3cc(OCc4ccccc4C(F)(F)F)c(C(N)=O)s3)c2c1 [Example 118] | < 1 µM | > 10 µM | 1 to 10 µM | < 0.1 µM | 1 to 10 µM | < 1 µM | < 1 µM |
| COc1cc2ncn(-c3cc(OCc4ccccc4[S+](C)[O-])c(C(N)=O)s3)c2cc1OC (centres unmarked) [Example 98, 5-(5,6-Dimethoxy-1H-benzimidazol-1-yl)-3-{[2-(methylsulfinyl)benzyl]oxy}thiophene-2-carboxamide] | 1 to 10 µM | 1 to 10 µM | > 10 µM | 0.1 to 10 µM | 1 to 10 µM | 1 to 10 µM | 1 to 10 µM |
| NC(=O)c1sc(-n2cnc3ccc(C(F)(F)F)cc32)cc1OCc1ccccc1Br [Example 119, 3-[(2-Bromobenzyl)oxy]-5-[6-(trifluoromethyl)-1H-benzimidazol-1-yl]thiophene-2-carboxamide] | 1 to 10 µM | > 10 µM | > 10 µM | < 0.1 µM | 1 to 10 µM | 1 to 10 µM | 1 to 10 µM |
| CN(c1ccccc1)c1cc(-n2cnc3ccccc32)sc1C(N)=O [Example 131, 5-(1H-Benzimidazol-1-yl)-3-[methyl(phenyl)amino]thiophene-2-carboxamide] | 1 to 10 µM | > 10 µM | > 10 µM | 0.1 to 10 µM | 1 to 10 µM | 1 to 10 µM | 1 to 10 µM |
